Results published in patent publication US6607890B1, “Mismatch-recognizing molecules” (Japan Science and Technology Corporation, priority 1999, dated 2003).

Assays:
Type in all cases: binding
[1] = tested on: normal G-C base pair; experiment: DNase I footprinting titration on 5′-32P labeled 52-mer double-stranded DNA, normal G-C site; conditions: concentration increased from 0 up to 500 μM, FIG. 1
Description: (§1) Accordingly, it was examined whether such a compound having two 1,8-naphthylidien moieties can be incorporated into chains of a nucleic acid by constructing a paring with each mismatched guanine in a case when mismatched base pairing of guanine—guanine exists in a double-stranded nucleic acid. 52-mer double-stranded DNA labeled with 5′-^32P having a GC base pair, a GA mismatched base pair and a GG mismatched base pair in the double-stranded DNA was prepared. The partial sequences of the corresponding parts are illustrated as follows.
(§2) Using this double-stranded DNA, an inhibited position of DNA cleavage by DNase I was analyzed by means of DNase I (DNA hydrolase) footprinting titration in the presence of the compound of the formula (III) at various concentrations.
Cleavage by DNase I (DNA hydrolase) is shown in black and inhibition in a position of the cleavage by DNase is shown in white.
(§3) A double-stranded DNA was prepared by hybridizing 5′-end ^32P labeled 52-mer DNA to form mismatched base pairs with G-G and G-A (refer to the right figures in FIG. 1).
Various concentrations of the compound obtained in example 1 were added to the double-stranded DNA, and analyzed by DNA footprinting using DNase I. […]

[2] = tested on: G-A mismatched base pair; experiment: DNase I footprinting titration on 5′-32P labeled 52-mer double-stranded DNA, G-A mismatched site
Description: as §1, §2
(§4) FIG. 2 is a graph showing a relationship between an intensity of cleaved band and a concentration of added naphthyriidine in FIG. 1. […] In FIG. 2, the abscissa indicates concentration (M) of the compound of the formula (III) added. In FIG. 2, black circle (●) in the graph indicates mismatched site of G-G, and black triangle (▴) indicates mismatched site of G-A.
as §3
(§5) Various concentrations of the compound obtained in example 1 were added to the double-stranded DNA, and analyzed by DNA footprinting using DNase I.
(§6) The double-stranded DNA (<4 nM strand concentration) was incubated with the compound obtained in example 1, which was adjusted to various concentrations with tris-HCl buffer (10 mM, pH 7.6) containing NaCl (100 mM) and MgCl2 (5 mM), at 4° C. for 12 hours. 0.2 U DNase I (DNA hydrolase) was added thereto and incubated at 25° C. for […]. DNA was recovered by mans of ethanol precipitation and electrophoresed using a gel containing 12% polyacrylamide and 7M urea.

[3] = tested on: G-G mismatched base pair; experiment: DNase I footprinting titration on 5′-32P labeled 52-mer double-stranded DNA, G-G mismatched site
Description: as §1, §2, §4, §3, §5, §6

[4] = calculated from DNase I footprinting titration (FIG. 2)

Cc1ccc2ccc(NC(=O)CCNCCC(=O)Nc3ccc4ccc(C)nc4n3)nc2n1 [formula (III), dinaphthylidinamide]
effect on DNase I cleavage at the normal G-C base pairing [1]: cleavage by DNase I occurs | concentration from which the inhibitory action against cleavage initiates in the G-A mismatched site ([2]; DNase I cleavage, FIG. 2): approximately 10^−6 M | inhibition of the cleavage in the G-A mismatched site ([2]; at around (500 μM) compound): about 90% | binding constant to the mismatched base G-A [Ka (GAmis)] [2, 4]: 16300 M⁻¹ | concentration at which the cleavage in the G-G mismatched site is inhibited almost completely ([3]; DNase I cleavage, FIG. 2): ≥ 10^−5 M | ratio of both binding constants [(Ka (GGmis))/(Ka (GAmis))] ([3]; G-G versus G-A mismatch): 696 | binding constant to the mismatched base G-G [Ka (GGmis)] [3, 4]: 1.13e+07 M⁻¹
